Assay results from US5217960A, “Erythromycin derivatives” (priority 1991, dated 1993).
In brackets after ≈: the same amount, converted by molar mass. Where two headings read alike, the source gives them in different places.

Assays:
Format in all cases: cell-based
ESCHERICHIA COLI KNK 437 = experiment: microbe, parasite or virus in culture
[1] = system: STREPTOCOCCUS PYOGENES 930 CONST; experiment: In vitro antibacterial activity, agar dilution MIC
[2] = system: STREPTOCOCCUS BOVIS A5169; experiment: In vitro antibacterial activity, agar dilution MIC
[3] = system: STAPHYLOCOCCUS EPIDERMIDIS 3519; experiment: microbe, parasite or virus in culture
[4] = system: STAPHYLOCOCCUS AUREUS ATCC 6538P; experiment: In vitro antibacterial activity, agar dilution MIC; conditions: ATCC6538P, 24 h
[5] = system: STAPHYLOCOCCUS AUREUS 642A; experiment: In vitro antibacterial activity, agar dilution MIC; conditions: 24 h
[6] = system: PSEUDOMONAS AERUGINOSA A5007; experiment: In vitro antibacterial activity, agar dilution MIC; conditions: P. aeruginosa A5007, BHI agar, 35-37° C., 20 to 24 hours
[7] = system: STAPHYLOCOCCUS AUREUS 1775; experiment: In vitro antibacterial activity, agar dilution MIC
[8] = system: ENTEROBACTER AEROGENES ATCC 13048; experiment: In vitro antibacterial activity, agar dilution MIC; conditions: Klebsiella aerogenes, ATCC13048; E. aerogenes ATCC 13048; BHI agar, 35-37° C., 20 to 24 hours; read-out: MIC
M[…] ATCC 4698 = experiment: In vitro antibacterial activity, agar dilution MIC; conditions: Micrococcus luteus, ATCC4698, 24 h
Description: (§1) Representative compounds of the present invention were assayed in vitro for antibacterial activity as follows: Twelve petri dishes containing successive aqueous dilutions of the test compound mixed with 10 ml of sterilized Brain Heart Infusion (BHI) agar (Difco 0418-01-5) were prepared. Each plate was inoculated with 1:100 (or 1:10 for slow-growing strains, such as Micrococcus and Streptococcus) dilutions of up to 32 different microorganisms, using a Steers replicator block. The inoculated plates were incubated at 35°-37° C. for 20 to 24 hours. In addition, a control plate, using BHI agar containing no test compound, was prepared and incubated at the beginning and end of each test.
(§2) An additional plate containing a compound having known susceptibility patterns for the organisms being tested and belonging to the same antibiotic class as the test compound was also prepared and incubated as a further control, as well as to provide test-to-test comparability. Erythromycin A was used for this purpose.
(§3) After incubation, each disk was read. The minimum inhibitory concentration (MIC) was defined as the lowest concentration of drug yielding no growth, a slight haze, or sparsely isolated colonies on the inoculum spot as compared to the growth control. The results of this assay, shown below in Tables 1 and 2, support the conclusion that the compounds of the invention are effective antibacterial agents.

M[…] ATCC 9341 = experiment: In vitro antibacterial activity, agar dilution MIC; conditions: Micrococcus luteus, ATCC9341, 24 h
Description: as §1, §2, §3

[9] = system: PSEUDOMONAS AERUGINOSA K799/61; experiment: In vitro antibacterial activity, agar dilution MIC
Description: as §1, §2, §3

EN[…] ATCC 8043 = experiment: In vitro antibacterial activity, agar dilution MIC; conditions: Enterococcus faecium, ATCC8043, 24 h
Description: as §1, §2, §3

[10] = system: STAPHYLOCOCCUS AUREUS NCTC 10649; experiment: In vitro antibacterial activity, agar dilution MIC; conditions: NCTC10649, 24 h
STR[…] 508 = experiment: In vitro antibacterial activity, agar dilution MIC; conditions: Streptococcus agalactiae, 24 h
Description: as §1, §2
(§4) After incubation, each disk was read. The minimum inhibitory concentration (MIC) was defined as the lowest concentration of drug yielding no growth, a slight haze, or sparsely isolated colonies on the inoculum spot as compared to the growth control.

STR[…] EES61 = experiment: In vitro antibacterial activity, agar dilution MIC; conditions: Streptococcus pyogenes, 24 h
Description: as §1, §2, §4

ESCHERICHIA COLI SS = experiment: In vitro antibacterial activity, agar dilution MIC
[11] = system: PROVIDENCIA STUARTII CMX 640; experiment: microbe, parasite or virus in culture; conditions: P. stuartii CMX 640, BHI agar, 35-37° C., 20 to 24 hours
STAPHYLOCOCCUS AUREUS 45 = experiment: In vitro antibacterial activity, agar dilution MIC; conditions: 24 h
[12] = system: PSEUDOMONAS AERUGINOSA BMH10; experiment: In vitro antibacterial activity, agar dilution MIC; conditions: P. aeruginosa BMH10, BHI agar, 35-37° C., 20 to 24 hours, read-out: MIC
ESCHERICHIA COLI JUHL = experiment: microbe, parasite or virus in culture
ESCHERICHIA COLI H560 = experiment: In vitro antibacterial activity, agar dilution MIC
[13] = system: KLEBSIELLA PNEUMONIAE ATCC 8045; experiment: In vitro antibacterial activity, agar dilution MIC; conditions: ATCC8045, K. pneumoniae ATCC 8045, BHI agar, 35-37° C., 20 to 24 hours, read-out: MIC
[14] = system: STREPTOCOCCUS PYOGENES 2548 INDUC; experiment: In vitro antibacterial activity, agar dilution MIC
[15] = system: PSEUDOMONAS AERUGINOSA K799/WT; experiment: In vitro antibacterial activity, agar dilution MIC; conditions: P. aeruginosa K799/WT, BHI agar, 35-37° C., 20 to 24 hours
[16] = system: STAPHYLOCOCCUS AUREUS A5177; experiment: In vitro antibacterial activity, agar dilution MIC; conditions: S. aureus A5177, BHI agar, 35-37° C., 20 to 24 hours, read-out: MIC
PSEUDOMONAS CEPACIA 296I = experiment: In vitro antibacterial activity, agar dilution MIC; conditions: Burkholderia cepacia
[17] = system: ACINETOBACTER CALCOACETICUS CMX 669; experiment: In vitro antibacterial activity, agar dilution MIC; conditions: A. calcoaceticus CMX 669, BHI agar, 35-37° C., 20 to 24 hours
[18] = system: STAPHYLOCOCCUS AUREUS CMX 553; experiment: In vitro antibacterial activity, agar dilution MIC; conditions: 24 h
ESCHERICHIA COLI DC-2 = experiment: In vitro antibacterial activity, agar dilution MIC; conditions: E. coli DC-2, BHI agar, 35-37° C., 20 to 24 hours, read-out: MIC

With `CC[C@H]1OC(=O)[C@H](C)[C@@H](O[C@H]2C[C@@](C)(OC)[C@@H](O)[C@H](C)O2)[C@H](C)[C@@H](O[C@@H]2O[C@H](C)C[C@H](N(C)C)[C@H]2O)[C@](C)(O)C[C@@H](C)[C@@H](N(C)C)[C@H](C)[C@@H](O)[C@H]1CO` [Compound 11, (9R)-9-deoxo-9-(N,N-dimethylamino)-21-hydroxyerythromycin B] the MIC (ESCHERICHIA COLI KNK 437; E. coli KNK 437, BHI agar, 35-37° C., 20 to 24 hours) was over 100 µg/mL, the MIC ([1]; S. pyogenes 930 CONST, BHI agar, 35-37° C., 20 to 24 hours, read-out: MIC) was over 100 µg/mL and the MIC ([2]; 24 h) was 0.78 µg/mL (≈ 1.02 µM). For the same molecule, the MIC ([3]; 24 h) was 6.2 µg/mL (≈ 8.13 µM), the MIC [4] was 6.2 µg/mL (≈ 8.13 µM) and the MIC [5] was 6.2 µg/mL (≈ 8.13 µM). For the same molecule, the MIC [6] was over 100 µg/mL, the MIC ([7]; S. aureus 1775, BHI agar, 35-37° C., 20 to 24 hours, read-out: MIC) was over 100 µg/mL and the MIC [8] was over 100 µg/mL. For the same molecule, the MIC (M[…] ATCC 4698) was 0.78 µg/mL (≈ 1.02 µM), the MIC (M[…] ATCC 9341) was 0.78 µg/mL (≈ 1.02 µM) and the MIC ([9]; P. aeruginosa K799/61, BHI agar, 35-37° C., 20 to 24 hours, read-out: MIC) was 12.5 µg/mL (≈ 16.4 µM). The MIC (EN[…] ATCC 8043) was 1.56 µg/mL (≈ 2.04 µM), the MIC [10] was 6.2 µg/mL (≈ 8.13 µM) and the MIC (STR[…] 508) was 0.78 µg/mL (≈ 1.02 µM). It also gave an MIC (STR[…] EES61) of 0.39 µg/mL (≈ 0.511 µM), an MIC (ESCHERICHIA COLI SS; 24 h) of 0.39 µg/mL (≈ 0.511 µM) and an MIC [11] of over 100 µg/mL. It also gave an MIC (STAPHYLOCOCCUS AUREUS 45) of 6.2 µg/mL (≈ 8.13 µM), an MIC [12] of over 100 µg/mL and an MIC (ESCHERICHIA COLI JUHL; E. coli JUHL, BHI agar, 35-37° C., 20 to 24 hours, read-out: MIC) of over 100 µg/mL. It also gave an MIC (ESCHERICHIA COLI H560; 24 h) of 50 µg/mL (≈ 65.5 µM), an MIC [13] of over 100 µg/mL and an MIC ([14]; 24 h) of 50 µg/mL (≈ 65.5 µM). The MIC [15] was over 100 µg/mL, the MIC [16] was 100 µg/mL (≈ 131 µM) and the MIC (PSEUDOMONAS CEPACIA 296I; P. cepacia 296I, BHI agar, 35-37° C., 20 to 24 hours, read-out: MIC) was over 100 µg/mL. For the same molecule, the MIC [17] was over 100 µg/mL, the MIC [18] was 6.2 µg/mL (≈ 8.13 µM) and the MIC (ESCHERICHIA COLI DC-2) was over 100 µg/mL.

For `CC[C@H]1OC(=O)[C@H](C)[C@@H](O[C@H]2C[C@@](C)(OC)[C@@H](O)[C@H](C)O2)[C@H](C)[C@@H](O[C@@H]2O[C@H](C)C[C@H](N(C)C)[C@H]2O)[C@](C)(O)C[C@@H](C)[C@@H](N(C)C)[C@H](C)[C@@H](O)[C@@]1(O)CN(C)Cc1ccccc1` [Compound 16, (9R)-21-(N-benzyl-N-methylamino)-9-deoxo-9-(N,N-dimethylamino)-erythromycinA], the MIC (ESCHERICHIA COLI KNK 437; 24 h) was 50 µg/mL (≈ 56.7 µM), the MIC ([1]; 24 h) was 0.78 µg/mL (≈ 0.884 µM) and the MIC ([2]; S. bovis A5169, BHI agar, 35-37° C., 20 to 24 hours, read-out: MIC) was 1.56 µg/mL (≈ 1.77 µM). The MIC ([3]; S. epidermidis 3519, BHI agar, 35-37° C., 20 to 24 hours, read-out: MIC) was over 100 µg/mL, the MIC [4] was 12.5 µg/mL (≈ 14.2 µM) and the MIC [5] was 3.1 µg/mL (≈ 3.51 µM). The MIC [6] was 100 µg/mL (≈ 113 µM), the MIC ([7]; 24 h) was 12.5 µg/mL (≈ 14.2 µM) and the MIC [8] was 100 µg/mL (≈ 113 µM). For the same molecule, the MIC (M[…] ATCC 4698) was 0.39 µg/mL (≈ 0.442 µM), the MIC (M[…] ATCC 9341) was 6.2 µg/mL (≈ 7.03 µM) and the MIC ([9]; 24 h) was over 100 µg/mL. It also gave an MIC (EN[…] ATCC 8043) of 3.1 µg/mL (≈ 3.51 µM), an MIC [10] of 12.5 µg/mL (≈ 14.2 µM) and an MIC (STR[…] 508) of 0.1 µg/mL (≈ 0.113 µM). It also gave an MIC (STR[…] EES61) of 0.39 µg/mL (≈ 0.442 µM), an MIC (ESCHERICHIA COLI SS; E. coli SS, BHI agar, 35-37° C., 20 to 24 hours, read-out: MIC) of 100 µg/mL (≈ 113 µM) and an MIC [11] of 100 µg/mL (≈ 113 µM). The MIC (STAPHYLOCOCCUS AUREUS 45) was 6.2 µg/mL (≈ 7.03 µM), the MIC [12] was over 100 µg/mL and the MIC (ESCHERICHIA COLI JUHL; 24 h) was 12.5 µg/mL (≈ 14.2 µM). It also gave an MIC (ESCHERICHIA COLI H560; E. coli H560, BHI agar, 35-37° C., 20 to 24 hours, read-out: MIC) of 100 µg/mL (≈ 113 µM), an MIC [13] of over 100 µg/mL and an MIC ([14]; S. pyogenes 2548 INDUC, BHI agar, 35-37° C., 20 to 24 hours, read-out: MIC) of 50 µg/mL (≈ 56.7 µM). For the same molecule, the MIC [15] was over 100 µg/mL, the MIC [16] was over 100 µg/mL and the MIC (PSEUDOMONAS CEPACIA 296I; 24 h) was 12.5 µg/mL (≈ 14.2 µM). It also gave an MIC [17] of over 100 µg/mL, an MIC [18] of 12.5 µg/mL (≈ 14.2 µM) and an MIC (ESCHERICHIA COLI DC-2) of 1.56 µg/mL (≈ 1.77 µM).
